In PubChem BioAssay AID248 (DTP/NCI, 2004):
Values joined by “and” are separate entries in the source; they are usually repeats but may differ in a detail not shown here. Equal values may be shown once. Inconclusive results and toxic doses are left out. Rule as the data show it: active = T/C of 150% or more; inactive = T/C below 125%.

Test system: L1210 leukemia ip in BDF1 mice, survival T/C
Test: NCI In Vivo Anticancer Drug Screen. Data for tumor model L1210 Leukemia (intraperitoneal) in B6D2F1 (BDF1) mice
Settings: endpoint: mean survival time, higher = longer survival
Outline: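 Survival endpoint. Drug-treated group vs vehicle group, expressed as T divided by C. Tumor passaged by transplantation.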

[1] = dose: 100.0 mg/kg/injection, schedule: Q04DX002 (ip), vehicle: Klucel (hydroxypropylcellulose) (HPC)
[2] = dose: 200.0 mg/kg/injection, schedule: Q04DX002 (ip), vehicle: Klucel (hydroxypropylcellulose) (HPC)
[3] = dose: 400.0 mg/kg/injection, schedule: Q04DX002 (ip), vehicle: Klucel (hydroxypropylcellulose) (HPC)
[4] = dose: 100.0 mg/kg/injection, schedule: Q01DX001 (ip), vehicle: saline
[5] = dose: 200.0 mg/kg/injection, schedule: Q01DX001 (ip), vehicle: saline
[6] = dose: 400.0 mg/kg/injection, schedule: Q01DX001 (ip), vehicle: saline
[7] = dose: 100.0 mg/kg/injection, schedule: Q01DX001 (ip), vehicle: saline with Tween-80
[8] = dose: 200.0 mg/kg/injection, schedule: Q01DX001 (ip), vehicle: saline with Tween-80
[9] = dose: 100.0 mg/kg/injection, schedule: Q04DX002 (ip), vehicle: saline with Tween-80
[10] = dose: 200.0 mg/kg/injection, schedule: Q04DX002 (ip), vehicle: saline with Tween-80
[11] = dose: 400.0 mg/kg/injection, schedule: Q04DX002 (ip), vehicle: saline with Tween-80
[12] = dose: 100.0 mg/kg/injection, schedule: Q04DX003 (ip), vehicle: Klucel (hydroxypropylcellulose) (HPC)

Measured: T/C

CCCCCCCS(=O)(=O)c1nc2ccccc2[nH]1
inactive: [1] 95 % of control | [2] 101 % of control | [3] 104 % of control

Nc1cc[c]([Hg][Cl])cc1
inactive: dose: 1.0 mg/kg/injection, schedule: Q01DX009 (ip), vehicle: Klucel (hydroxypropylcellulose) (HPC) 97 % of control | dose: 1.0 mg/kg/injection, schedule: Q04DX003 (ip), vehicle: saline 102 % of control | dose: 3.0 mg/kg/injection, schedule: Q01DX009 (ip), vehicle: Klucel (hydroxypropylcellulose) (HPC) 112 % of control | dose: 3.0 mg/kg/injection, schedule: Q04DX003 (ip), vehicle: saline 96 % of control | dose: 6.0 mg/kg/injection, schedule: Q01DX009 (ip), vehicle: Klucel (hydroxypropylcellulose) (HPC) 88 % of control | dose: 6.0 mg/kg/injection, schedule: Q04DX003 (ip), vehicle: saline 95 % of control

CN(C)CCCN
inactive: [4] 97 % of control | [5] 108 % of control | [6] 95 % of control

Cc1cc(C)c(O)c(CN(Cc2cc(C)cc(C)c2O)C2CCCCC2)c1
inactive: [4] 96 % of control | [5] 88 % of control | [6] 88 % of control

CCCCCC(O)C1C(=O)OC(C)C(O)/C=C/C=C/C=C/C=C/C=C(\C)C(O)C(O)C(O)CC(O)CC(O)CC(O)CC(O)CC1O (configuration not stated)
inactive: dose: 0.5 mg/kg/injection, schedule: Q01DX001 (ip), vehicle: saline 97 % of control | dose: 1.0 mg/kg/injection, schedule: Q01DX001 (ip), vehicle: saline 97 % of control | dose: 2.0 mg/kg/injection, schedule: Q01DX001 (ip), vehicle: saline 95 % of control | dose: 4.0 mg/kg/injection, schedule: Q01DX001 (ip), vehicle: saline 92 % of control | dose: 8.0 mg/kg/injection, schedule: Q01DX001 (ip), vehicle: saline 97 % of control

COc1cc(C(C)=O)cc(OC)c1Oc1cc(OC)c(OC)c(OC)c1C(C)=O
inactive: dose: 100.0 mg/kg/injection, schedule: Q04DX003 (ip), vehicle: saline with Tween-80 95 % of control | dose: 200.0 mg/kg/injection, schedule: Q04DX003 (ip), vehicle: saline with Tween-80 97 % of control | dose: 400.0 mg/kg/injection, schedule: Q04DX003 (ip), vehicle: saline with Tween-80 101 % of control

Cc1cc(-c2ccccc2O)nc(N(C)CC(=O)O)n1
inactive: [1] 94 % of control | [2] 98 % of control | [3] 96 % of control

CCOC(=O)/C=C(\C)Nc1ncc(Br)cc1Br
inactive: [7] 92 % of control | [8] 96 % of control | dose: 400.0 mg/kg/injection, schedule: Q01DX001 (ip), vehicle: saline with Tween-80 89 % of control

CCCN(C(=O)c1cccc([N+](=O)[O-])c1)C(c1ccco1)P(=O)(c1ccccc1)c1ccccc1 (configuration not stated)
inactive: dose: 50.0 mg/kg/injection, schedule: Q01DX001 (ip), vehicle: saline with Tween-80 101 % of control | [7] 101 % of control | dose: 100.0 mg/kg/injection, schedule: Q01DX009 (ip), vehicle: saline with Tween-80 100 % of control and 90 % of control | [9] 98 % of control | [8] 106 % of control | dose: 200.0 mg/kg/injection, schedule: Q01DX009 (ip), vehicle: saline with Tween-80 87 % of control | [10] 102 % of control | [11] 93 % of control and 88 % of control

NNC(=O)c1cccs1
inactive: dose: 25.0 mg/kg/injection, schedule: Q01DX009 (ip), vehicle: Klucel (hydroxypropylcellulose) (HPC) 100 % of control | dose: 25.0 mg/kg/injection, schedule: Q04DX003 (ip), vehicle: Klucel (hydroxypropylcellulose) (HPC) 95 % of control | dose: 50.0 mg/kg/injection, schedule: Q01DX001 (ip), vehicle: carboxymethylcellulose (CMC) 100 % of control | dose: 50.0 mg/kg/injection, schedule: Q01DX009 (ip), vehicle: Klucel (hydroxypropylcellulose) (HPC) 103 % of control | dose: 50.0 mg/kg/injection, schedule: Q04DX003 (ip), vehicle: Klucel (hydroxypropylcellulose) (HPC) 95 % of control | [12] 101 % of control

O=C(Nc1ccc([N+](=O)[O-])cc1Cl)Oc1cccc2ccccc12
inactive: dose: 100.0 mg/kg/injection, schedule: Q01DX009 (ip), vehicle: Klucel (hydroxypropylcellulose) (HPC) 96 % of control | [12] 105 % of control | dose: 200.0 mg/kg/injection, schedule: Q01DX009 (ip), vehicle: Klucel (hydroxypropylcellulose) (HPC) 96 % of control | dose: 200.0 mg/kg/injection, schedule: Q04DX003 (ip), vehicle: Klucel (hydroxypropylcellulose) (HPC) 105 % of control | dose: 400.0 mg/kg/injection, schedule: Q01DX009 (ip), vehicle: Klucel (hydroxypropylcellulose) (HPC) 102 % of control | dose: 400.0 mg/kg/injection, schedule: Q04DX003 (ip), vehicle: Klucel (hydroxypropylcellulose) (HPC) 105 % of control

CCCCC(CCCC)=NNc1ccc([N+](=O)[O-])cc1[N+](=O)[O-]
inactive: [4] 96 % of control | [5] 102 % of control | [6] 107 % of control

NC1C(O)C(O)C(Nc2ncnc3nc[nH]c23)OC1C(O)CO (configuration not stated)
inactive: dose: 0.44 mg/kg/injection, schedule: Q## X000 (ip), vehicle: carboxymethylcellulose (CMC) 98 % of control | dose: 0.66 mg/kg/injection, schedule: Q## X000 (ip), vehicle: carboxymethylcellulose (CMC) 100 % of control | dose: 1.0 mg/kg/injection, schedule: Q## X000 (ip), vehicle: carboxymethylcellulose (CMC) 100 % of control | dose: 1.5 mg/kg/injection, schedule: Q01DX009 (ip), vehicle: saline 104 % of control | dose: 1.5 mg/kg/injection, schedule: Q## X000 (ip), vehicle: carboxymethylcellulose (CMC) 100 % of control | dose: 3.0 mg/kg/injection, schedule: Q01DX001 (ip), vehicle: saline 107 % of control | dose: 3.0 mg/kg/injection, schedule: Q01DX009 (ip), vehicle: saline 103 % of control | dose: 6.0 mg/kg/injection, schedule: Q01DX001 (ip), vehicle: saline 107 % of control | dose: 6.0 mg/kg/injection, schedule: Q01DX009 (ip), vehicle: saline 101 % of control | dose: 12.0 mg/kg/injection, schedule: Q01DX001 (ip), vehicle: saline 107 % of control | dose: 12.0 mg/kg/injection, schedule: Q01DX009 (ip), vehicle: saline 98 % of control | dose: 24.0 mg/kg/injection, schedule: Q01DX001 (ip), vehicle: saline 104 % of control | dose: 24.0 mg/kg/injection, schedule: Q01DX009 (ip), vehicle: saline 101 % of control | dose: 35.0 mg/kg/injection, schedule: Q01DX009 (ip), vehicle: saline 95 % of control | dose: 48.0 mg/kg/injection, schedule: Q01DX001 (ip), vehicle: saline 103 % of control | dose: 55.0 mg/kg/injection, schedule: Q01DX009 (ip), vehicle: saline 97 % of control | dose: 75.0 mg/kg/injection, schedule: Q01DX001 (ip), vehicle: saline 96 % of control | dose: 80.0 mg/kg/injection, schedule: Q01DX009 (ip), vehicle: saline 97 % of control | dose: 110.0 mg/kg/injection, schedule: Q01DX001 (ip), vehicle: saline 98 % of control | dose: 165.0 mg/kg/injection, schedule: Q01DX001 (ip), vehicle: saline 101 % of control | dose: 245.0 mg/kg/injection, schedule: Q01DX001 (ip), vehicle: saline 95 % of control | dose: 370.0 mg/kg/injection, schedule: Q01DX001 (ip), vehicle: saline 103 % of control

CCCNC(=O)Oc1ccccc1-c1ccccc1
inactive: [9] 92 % of control | [10] 103 % of control | [11] 110 % of control
